The values below come from patent US20240376097A1, “BCL-2 Inhibitor” (BeiGene Ltd., priority 2020, published 2024).

The target of test [1] is Recombinant human Bcl-2 protein (Homo sapiens (Human), UniProt P10415). The test can be described thus: Bcl-2 TR-FRET Assay. Type of test: binding. To be noted: Bcl-2 wild type, TR-FRET; read-out: Biochemical assay (IC50, nM) Bcl-2 WT. The gist of the method: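 Compounds were pre-incubated with 0.05 nM recombinant Bcl-2 for 0.5 h at room temperature in potassium phosphate buffer, pH 7.5. FITC-Bak peptide (0.5 nM) and Tb-cryptate antibody were then added for 1 h. Percent inhibition from TR-FRET signals gave IC50 values.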
Background: Time-resolved FRET reads energy transfer from a long-lived donor to a nearby acceptor.

Test [2] concerns the target recombinant human Bcl-2-G101V protein (Homo sapiens (Human), UniProt P10415, G101V). The test can be described thus: Bcl-2-G101V TR-FRET Assay. The class given is binding. To be noted: Bcl-2 G101V mutant, TR-FRET; read-out: Biochemical assay (IC50, nM) Bcl-2 G101V. Put shortly:
(§1)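 Compounds were titrated at increasing concentrations against the Bcl-2-G101V–ligand interaction. TR-FRET signals were then read (ex 337 nm; em 490/520 nm). Percent inhibition was derived from the 490-to-520 nm ratio, and IC50 from a four-parameter logistic equation.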

For test [3], the system named is recombinant human Bcl-2-G101V protein. The test can be described thus: Bcl-2-G101V TR-FRET Assay. The class given is binding. The note with it: ratio of biochemical IC50 Bcl-2 G101V / Bcl-2 WT. Put shortly:
as §1

Test [4] has as its system RS4;11 (BCL-2 dependent acute lymphoblastic leukemia cell line). The test can be described thus: RS4;11 Cell Proliferation Assay. The class given is cell-based. To be noted: Homo sapiens, RS4-11, RS4;11 cells, read-out: Cellular proliferation assay (IC50, nM) RS4. Put shortly: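 RS4;11 cells, 50,000 per well in RPMI-1640 with 10% FBS, treated 48 h at 37 °C with a 10-point dilution series topping at 1 μM. Viability read by CellTiter-Glo ATP luminescence; mean IC50 reported.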

Test [5] deals with BCL-2 G101V knock-in cell line H96 (derive from RS4;11). The test is described as follows: Bcl 2-G101V Knock-In RS4;11 Cell Proliferation Assay. The class given is cell-based. The note with it: Homo sapiens, RS4;11 Bcl-2 G101V knock-in clone H96, 48 hrs, CellTiter-GLO, read-out: Cellular proliferation assay (IC50, nM) RS4. The gist of the method: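 H96, a CRISPR-generated RS4;11 clone carrying BCL2-G101V knock-in (WES/RNA-seq validated), seeded 50,000 per well and exposed 48 h at 37 °C to 10-point dilutions topping at 1 or 10 μM. Viability by CellTiter-Glo luminescence; mean IC50.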
(In general: Cellular ATP, detected with luciferase, serves as a proxy for viable cell number.)

As to `CCc1ccc(CN2CCN(C3CC4(C3)CN(c3ccc(C(=O)NS(=O)(=O)c5ccc(NC[C@H]6CC[C@](C)(O)CC6)c([N+](=O)[O-])c5)c(Oc5cnc6[nH]ccc6c5)c3)C4)[C@H](c3ccccc3C(C)C)C2)cc1OC` [Example 271, 2-((1H-pyrrolo[2,3-b]pyridin-5-yl)oxy)-4-(6-((R)-4-(4-ethyl-3-methoxybenzyl)-2-(2-isopropylphenyl)piperazin-1-yl)-2-azaspiro[3.3]heptan-2-yl)-N-((4-((((1r,4r)-4-hydroxy-4-methylcyclohexyl)methyl)amino)-3-nitrophenyl)sulfonyl)benzamide], the IC50 in test [1] worked out at 0.47 nM; in test [2], 1.5 nM; in test [4], 0.11 nM; in test [5], 0.4 nM. Further, the “Ratio of Bcl-2 G101V/WT” value in test [3] worked out at 3.1.

As to `COc1cc(CN2CCN(C3CC4(CCN(c5ccc(C(=O)NS(=O)(=O)c6ccc(NC[C@H]7CC[C@](C)(O)CC7)c([N+](=O)[O-])c6)c(Oc6cnc7[nH]ccc7c6)c5)CC4)C3)[C@H](c3ccccc3C(C)C)C2)ccc1C(F)(F)F` [Example 277, 2-((1H-pyrrolo[2,3-b]pyridin-5-yl)oxy)-N-((4-((((1r,4r)-4-hydroxy-4-methylcyclohexyl)methyl)amino)-3-nitrophenyl)sulfonyl)-4-(2-((R)-2-(2-isopropylphenyl)-4-(3-methoxy-4-(trifluoromethyl)benzyl)piperazin-1-yl)-7azaspiro [3.5]nonan-7-yl)benzamide], the IC50 in test [1] was 1.4 nM; in test [2] it was 3.2 nM; in test [4], 0.22 nM; in test [5], 1.9 nM. Also, the “Ratio of Bcl-2 G101V/WT” value in test [3] stood at 2.2.

As to `COc1cc(CN2CCN(C3CC4(CCN(c5ccc(C(=O)NS(=O)(=O)c6ccc(NC[C@H]7CC[C@](C)(O)CC7)c([N+](=O)[O-])c6)c(Oc6cnc7[nH]cc(F)c7c6)c5)CC4)C3)[C@H](c3ccccc3C(C)C)C2)ccc1C(F)F` [Example 287], the IC50 in test [1] came to 0.87 nM; in test [2] it was 2.3 nM; in test [4], 0.16 nM; in test [5], 0.55 nM. Moreover, the “Ratio of Bcl-2 G101V/WT” value in test [3] stood at 2.6.

`COc1cc(CN2CCN(C3CC4(C3)CN(c3ccc(C(=O)NS(=O)(=O)c5ccc(NC[C@H]6CC[C@](C)(O)CC6)c([N+](=O)[O-])c5)c(Oc5cnc6[nH]ccc6c5)c3)C4)[C@H](c3ccccc3C(C)C)C2)ccc1C(F)(F)F` [Example 290, 2-((1H-pyrrolo[2,3-b]pyridin-5-yl)oxy)-N-((4-((((1r,4r)-4-hydroxy-4-methylcyclohexyl)methyl)amino)-3-nitrophenyl)sulfonyl)-4-(6-((R)-2-(2-isopropylphenyl)-4-(3-methoxy-4-(trifluoromethyl)benzyl)piperazin-1-yl)-2-azaspiro [3.3]heptan-2-yl)benzamide]: the IC50 was 0.9 nM in test [1], 2.2 nM in test [2], 0.2 nM in test [4] and 1.5 nM in test [5]. Moreover, in test [3], the “Ratio of Bcl-2 G101V/WT” value stood at 2.5.

In the case of `CC(C)c1ccccc1[C@@H]1CN(Cc2ccc3c(c2)OCC3)CCN1C1CC2(C1)CN(c1ccc(C(=O)NS(=O)(=O)c3ccc(NC[C@H]4CC[C@](C)(O)CC4)c([N+](=O)[O-])c3)c(Oc3cnc4[nH]cc(F)c4c3)c1)C2` [Example 297, 4-(6-((R)-4-((2,3-dihydrobenzofuran-6-yl)methyl)-2-(2-isopropylphenyl)piperazin-1-yl)-2-azaspiro[3.3]heptan-2-yl)-2-((3-fluoro-1H-pyrrolo[2,3-b]pyridin-5-yl)oxy)-N-((4-((((1r,4r)-4-hydroxy-4-methylcyclohexyl)methyl)amino)-3-nitrophenyl)sulfonyl)benzamide], the IC50 worked out at 0.13 nM in test [1], 0.4 nM in test [2], 0.25 nM in test [4] and 1.16 nM in test [5]. In test [3], the “Ratio of Bcl-2 G101V/WT” value came out at 3.0.

For `CC(C)c1ccccc1[C@@H]1CN(Cc2ccc3c(c2)OCC3)CCN1C1CC2(C1)CN(c1ccc(C(=O)NS(=O)(=O)c3ccc(NC[C@H]4CC[C@](C)(O)CC4)c([N+](=O)[O-])c3)c(Oc3cnc4[nH]ccc4c3)c1)C2` [Example 298, 2-((1H-pyrrolo[2,3-b]pyridin-5-yl)oxy)-4-(6-((R)-4-((2,3-dihydrobenzofuran-6-yl)methyl)-2-(2-isopropylphenyl)piperazin-1-yl)-2-azaspiro[3.3]heptan-2-yl)-N-((4-((((1r,4r)-4-hydroxy-4-methylcyclohexyl)methyl)amino)-3-nitrophenyl)sulfonyl)benzamide], the IC50 is 0.099 nM in test [1], 0.45 nM in test [2], 0.24 nM in test [4] and 1.82 nM in test [5]. Also, the “Ratio of Bcl-2 G101V/WT” value in test [3] is listed as 4.6.

Regarding `CC(C)c1ccccc1[C@@H]1CN(Cc2ccc3c(c2)OCC3)CCN1C1CC2(CCN(c3ccc(C(=O)NS(=O)(=O)c4ccc(NC[C@H]5CC[C@](C)(O)CC5)c([N+](=O)[O-])c4)c(Oc4cnc5[nH]cc(F)c5c4)c3)CC2)C1` [Example 305, 4-(2-((R)-4-((2,3-dihydrobenzofuran-6-yl)methyl)-2-(2-isopropylphenyl)piperazin-1-yl)-7-azaspiro[3.5]nonan-7-yl)-2-((3-fluoro-1H-pyrrolo[2,3-b]pyridin-5-yl)oxy)-N-((4-((((1r,4r)-4-hydroxy-4-methylcyclohexyl)methyl)amino)-3-nitrophenyl)sulfonyl) benzamide], the IC50 in test [1] amounted to 0.19 nM; in test [2], 0.6 nM; in test [4], 0.32 nM; in test [5], 1.3 nM. Also, in test [3], the “Ratio of Bcl-2 G101V/WT” value was determined as 3.2.

In the case of `CC(C)c1ccccc1[C@@H]1CN(Cc2ccc3c(c2)OCC3(C)C)CCN1C1CC2(CCN(c3ccc(C(=O)NS(=O)(=O)c4ccc(NC[C@H]5CC[C@](C)(O)CC5)c([N+](=O)[O-])c4)c(Oc4cnc5[nH]cc(F)c5c4)c3)CC2)C1` [Example 308, 4-(2-((R)-4-((3,3-dimethyl-2,3-dihydrobenzofuran-6-yl)methyl)-2-(2-isopropylphenyl)piperazin-1-yl)-7-azaspiro[3.5]nonan-7-yl)-2-((3-fluoro-1H-pyrrolo[2,3-b]pyridin-5-yl)oxy)-N-((4-((((1r,4r)-4-hydroxy-4-methylcyclohexyl)methyl)amino)-3-nitrophenyl)sulfonyl)benzamide], the IC50 is 0.67 nM in test [1], 3.11 nM in test [2], 0.58 nM in test [4] and 3.95 nM in test [5]. The “Ratio of Bcl-2 G101V/WT” value in test [3] amounted to 4.6.

Take `CC(C)c1ccccc1[C@@H]1CN(Cc2ccc3c(c2)OCC3(C)C)CCN1C1CC2(C1)CN(c1ccc(C(=O)NS(=O)(=O)c3ccc(NC[C@H]4CC[C@](C)(O)CC4)c([N+](=O)[O-])c3)c(Oc3cnc4[nH]cc(F)c4c3)c1)C2` [Example 311, 4-(6-((R)-4-((3,3-dimethyl-2,3-dihydrobenzofuran-6-yl)methyl)-2-(2-isopropylphenyl)piperazin-1-yl)-2-azaspiro[3.3]heptan-2-yl)-2-((3-fluoro-1H-pyrrolo[2,3-b]pyridin-5-yl)oxy)-N-((4-((((1r,4r)-4-hydroxy-4-methylcyclohexyl)methyl)amino)-3-nitrophenyl)sulfonyl)benzamide]: the IC50 is 0.43 nM in test [1], 1.5 nM in test [2], 0.42 nM in test [4] and 2.3 nM in test [5]. For the same compound, the “Ratio of Bcl-2 G101V/WT” value in test [3] is reported as 3.4.

Regarding `CC(C)c1ccccc1[C@@H]1CN(Cc2ccnc3c2OC(C)(C)CO3)CCN1C1CC2(C1)CN(c1ccc(C(=O)NS(=O)(=O)c3ccc(NC[C@H]4CC[C@](C)(O)CC4)c([N+](=O)[O-])c3)c(Oc3cnc4[nH]cc(F)c4c3)c1)C2` [Example 313, 4-(6-((R)-4-((2,2-dimethyl-2,3-dihydro-[1,4]dioxino[2,3-b]pyridin-8-yl)methyl)-2-(2-isopropylphenyl)piperazin-1-yl)-2-azaspiro[3.3]heptan-2-yl)-2-((3-fluoro-1H-pyrrolo[2,3-b]pyridin-5-yl)oxy)-N-((4-((((1r,4r)-4-hydroxy-4-methylcyclohexyl)methyl)amino)-3-nitrophenyl)sulfonyl)benzamide], the IC50 is 0.048 nM in test [1], 0.19 nM in test [2], 0.18 nM in test [4] and 0.4 nM in test [5]. Besides, the “Ratio of Bcl-2 G101V/WT” value in test [3] came to 3.9.
